One data set has as its target T1, MSI2-RNA interaction (Homo sapiens, UniProt Q96DH6).
T1 construct: purchased LS Bio G2396
Briefly: MSI2 TR-FRET assay, primary screen and triplicate confirmation. The note with it: identified by the method disclosed herein. The data set is classed as binding. Here is the method: In some embodiments, inhibitory compounds of MSI2-RNA interactions were identified using the methods disclosed herein. In a primary screening of small molecule compound libraries using the MSI2 binding TR-FRET assay, 194,914 compounds were screened at 15 μM final concentration for induced inhibition of MSI2-RNA interaction. Hit compounds were selected with a cut-off of at least 30% inhibition. Subsequently, after analysis of donor- and acceptor-channels, and removal of potential detection artefacts, 1,391 compounds were selected and confirmed by MSI2 and U1A TR-FRET assays in triplicates and at 15 μM concentration (Table 1).
(§1) FIG. 6 illustrates the FRET assay principle for MSI2 and U1A. The NUMB RNA probe for MSI2 was selected based on prior scientific publications and has the following sequence: 5′[…]-Biotin (SEQ ID NO: 1) (Oncotarget, 8(63): 106587-106597 (2017). The RNA probe for U1A was designed based on an interaction study between U1A and RNA done by NMR (Structure 4(5): 621-631 (1996)) and has the following sequence: 5′[…]-Biotin (SEQ ID NO: 2). The underlined sequence represents the part which interacts with the protein, the sequence of AYYGCAC should fit into the groove of U1A according to the NMR studies. The remaining sequence without underline is a spacer. The assay developed provides robust TR-FRET readout.
FIG. 7 illustrates the high throughput screening workflow. […] The hit cut-off criteria are >30% inhibition. The hit triaging is based on analysis of donor- and acceptor-channels, removal of potential detection artefacts. The hit confirmation is based on triplicate confirmation runs (15 μM) in MSI2 and U1A TR-FRET assays. The compound selection for dose-response is a dose-response testing in MSI2 and U1A to filter for compounds that have the drug potential. The hit selection for hit to lead (HTL) is based on QC on dose responsive hits SAR tractability, and model building for hit expansion.
Background: TR-FRET usually uses a lanthanide donor and a delayed reading to cut background.

Data set [1] concerns the target T2, Musashi RNA Binding Protein 2 (MSI2) (Homo sapiens, UniProt Q96DH6).
T2 construct: purchased LS Bio G2396
As to the kind of experiment: MSI2:NUMB-Biotin5′ RNA binding assay HTRF, 10-point duplicate dose response curves of 512 compounds (FIG. 14). The note with it: 10-point duplicate curves, 100 μM to 5.6 nM, 3× dilution, MSI2 (His tag) 5 nM, NUMB-Biotin5′ RNA 1.25 nM, Streptavidin XL665 5 nM, His TB-Cryptate 0.6 nM, pH 7.3, read-out: MSI2 IC50 (normalized FRET ratio).
Text: In some embodiments, a MSI2 binding assay was developed where streptavidin labeled with XL665 or d2 was used as the acceptor, and Terbium (Tb) cryptate was used as the donor. For example, in the MSI2 binding assay, NUMB RNA was biotinylated at the 5′ end to create NUMB-Biotin 5′ RNA, which was coupled to the XL665 or d2-labeled streptavidin acceptor through streptavidin-biotin interaction. The MSI2 protein was engineered to contain a His tag, which was coupled to the Tb cryptate donor through an anti-His antibody attached to the Tb cryptate. Due to the MSI2-NUMB RNA interaction, the XL665 or d2 acceptor was brought into proximity of the Tb cryptate donor, thus generating a detectable FRET signal. Parameters of the binding assay, including the concentrations of MSI2 and NUMB-Biotin 5′ RNA, were optimized. Thus, the interaction of the MSI2 protein to NUMB-Biotin 5′ RNA could create a detectable FRET signal that can be used for subsequent binding assays and screening for modulators of MSI2-RNA interactions.
Reagents and protein/peptide: MSI2-LS Bio G2396 (provided in 20 mM Tris-HCL pH 8.0, 150 mM NaCl, 10% glycerol, 1 mM DTT); U1A-LS Bio G19194-10 (provided in 16 mM HEPES, pH 7.6, 400 mM NaCl, 20% glycerol); NUMB 5′Biotin—(IDT); NUMB 5′—(IDT); U1A RNA 5′ Biotin—(IDT); U1A RNA 5′—(IDT); HEPES pH 7.3 (RNase/DNase free)—(Fisher—BP299); Molecular grade water (RNase/DNase free)—(Invitrogen-10977-95); DTT (molecular grade—RNase/DNase free)—(Promega-V3151); Pluronic F-127—(Sigma Aldrich SKU #P2443); NaCl (RNase/DNase free)—(Sigma—S3014); 6His Terbium (TB) Cryptate—(CisBio—61HI2TLA); Streptavidin XL665 (CisBio—610SAXLA); AlphaPlate-1536 well flat bottom plate, Light gray (Perkin Elmer #6004350); and AlphaScreen Histidine Detection Kit (Perkin Elmer, Cat. No. 6760619C) containing AlphaScreen Nickel Chelate Acceptor Beads (5 mg/ml), and AlphaScreen Streptavidin Donor Beads (5 mg/ml).
as §1
IC50 analysis of 512 compounds selected from the confirmation screen (MSI2:NUMB-Biotin5′) screen was performed. The 512 compounds were run in duplicate 10-point dose response curve with a high concentration of 100 μM and a low concentration of 5.6 nM. The total volume of the assay was 8 μl and all steps except for ECHO dispense were performed on Tempest disperser. 80 nL of compounds in DMSO was dispensed in 10 point titrations of 3× dilutions with the t concentration of 100 μM and the bottom concentration of 5.6 nM from 10 mM stock using ECHO acoustic dispenser-duplicate curves on the same assay plate. 2 μL of assay buffer was added, 2 μL of MSI2 (4× Conc.) final concentration of 5 nM was added, and incubated for 30 minutes. […]

Data set [2] deals with T3, U1A protein and U1A target-Biotin5′ RNA (Homo sapiens, UniProt P09012).
T3 construct: purchased LS Bio G19194-10
As to the kind of experiment: U1A:Target-CTRL RNA competition assay, HTRF (384 well plate). Format: binding. The note with it: competitor RNA titrated from 1000 nM, 2× dilution over 9 points; U1A 5 nM + U1A Target-Biotin5′ 1.25 nM. As to the method: (§2) MSI2: Numb/U1A:Target RNA Competition assay-HTRF (384 well plate): CisBio HTRF protocol was followed in a total assay volume of 20 μl. 5 μL of NUMB-CTRL RNA/Target-CTRL (4× Conc.) titrated in 10 point in 2× dilution, 5 μL of MSI2 protein/U1A protein (4× Conc.) final concentration of 5 nM was added to each well, 5 μL of NUMB-Biotin5′/Target-Biotin5′ RNA (4× Conc.) final concentration of 1.25 nM and Streptavidin XL665 acceptor (4×) final concentration of 5 nM were added, and incubated for 60 minutes at room temperature. 5 μL of 4×His TB cryptate, final concentration of 0.6 nM was added and incubated at room temperature for 60 minutes and read on envision. The assay buffer contained 150 mM NaCl, 25 mM HEPES pH 7.3, 1 mM DTT, and 0.05% pluronic F-127.
(§3) NUMB RNA or U1A target RNA was titrated starting from 1000 nM in 2× dilution over 9 points against MSI2 5 nM+NUMB-Biotin5′ 1.25 nM. […] NUMB RNA or U1A target RNA was titrated starting from 1000 nM in 2× dilution over 9 points against U1A 5 nM+U1A Target-Biotin5′ 1.25 nM. […] X axis: Log of CTRL RNA (M); Y axis: (Streptavidin XL665/6His TB cryptate ratio)*1000.
(§4) NUMB RNA or U1A target RNA was titrated starting from 1000 nM in 2× dilution over 9 points against MSI2 5 nM+NUMB-Biotin5′ 1.25 nM. […] NUMB RNA or U1A target RNA was titrated starting from 1000 nM in 2× dilution over 9 points against U1A 5 nM+U1A Target-Biotin5′ 1.25 nM. […]

In data set [3] the target is T4, MSI2 protein and NUMB-Biotin5′ RNA (Homo sapiens, UniProt Q96DH6).
T4 construct: purchased LS Bio G2396
Briefly: MSI2:NUMB-CTRL RNA competition assay, HTRF (384 well plate). The note with it: competitor RNA titrated from 1000 nM, 2× dilution over 9 points; MSI2 5 nM + NUMB-Biotin5′ 1.25 nM. Format: binding. As to the method:
as §2, §3, §4

T1 sequence (Q96DH6 whole entry): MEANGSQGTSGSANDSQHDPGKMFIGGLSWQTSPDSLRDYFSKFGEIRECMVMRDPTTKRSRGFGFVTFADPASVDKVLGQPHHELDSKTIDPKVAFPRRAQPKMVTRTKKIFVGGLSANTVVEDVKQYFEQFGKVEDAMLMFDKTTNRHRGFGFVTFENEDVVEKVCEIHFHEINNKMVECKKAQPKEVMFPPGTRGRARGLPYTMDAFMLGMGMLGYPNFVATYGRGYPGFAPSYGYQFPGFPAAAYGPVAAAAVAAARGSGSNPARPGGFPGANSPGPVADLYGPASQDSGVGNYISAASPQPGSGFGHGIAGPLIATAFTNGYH
T2 sequence (Q96DH6 whole entry): as above
T4 sequence (Q96DH6 whole entry): as above
T3 sequence (P09012 whole entry, species assumed): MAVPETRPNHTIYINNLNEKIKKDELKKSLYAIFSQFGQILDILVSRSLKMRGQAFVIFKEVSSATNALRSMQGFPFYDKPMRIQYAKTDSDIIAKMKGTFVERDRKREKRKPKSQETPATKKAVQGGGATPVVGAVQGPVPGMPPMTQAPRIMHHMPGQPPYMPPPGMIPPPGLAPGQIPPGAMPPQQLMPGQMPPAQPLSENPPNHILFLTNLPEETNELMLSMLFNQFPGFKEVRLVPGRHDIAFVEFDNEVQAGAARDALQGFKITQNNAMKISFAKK

As for `Cc1cc(C)n2c(SCC(=O)c3cccc(N4CCCC4=O)c3)nnc2n1` [1-{3-[2-({5,7-dimethyl-[1,2,4]triazolo[4,3-a]pyrimidin-3-yl}sulfanyl)acetyl]phenyl}pyrrolidin-2-one], at MSI2-RNA interaction, the “inhibitor of MSI2-RNA interaction identified by the method” value (“inhibitor” below) is given as “inhibitors of MSI2-RNA interaction”.

Consider `Cc1ccc(C)n1-c1ccc(SCC(=O)O)cc1` [2-{[4-(2,5-dimethyl-1H-pyrrol-1-yl)phenyl]sulfanyl}acetic acid], for which the “inhibitor” value on MSI2-RNA interaction is “inhibitors of MSI2-RNA interaction”.

As to `Cc1ccc(C)n1-c1sccc1C(=O)N1CC(C(N)=O)Oc2ccccc21` (stereo not drawn) [4-[2-(2,5-dimethyl-1H-pyrrol-1-yl)thiophene-3-carbonyl]-3,4-dihydro-2H-1,4-benzoxazine-2-carboxamide], on MSI2-RNA interaction, the “inhibitor” value is given as “inhibitors of MSI2-RNA interaction”.

Take `O=c1cc(CN2CCn3c(nnc3-c3ccccc3)C2)[nH]c2ccnn12` [5-({3-phenyl-5H,6H, 7H,8H-[1,2,4]triazolo[4,3-a]pyrazin-7-yl}methyl)-4H,7H-pyrazolo[1,5-a]pyrimidin-7-one]: at MSI2-RNA interaction, the “inhibitor” value was “inhibitors of MSI2-RNA interaction”.

Regarding `CC(=O)N1CCC(NC(=O)c2cc(C)c(C)s2)CC1` [N-(1-acetylpiperidin-4-yl)-4,5-dimethylthiophene-2-carboxamide], the “inhibitor” value at MSI2-RNA interaction is on record as “inhibitors of MSI2-RNA interaction”.

As for `Cc1ccc(C)n1-c1sccc1C(=O)N1CC(C(N)=O)Oc2ccccc21` (stereo not drawn) [WXHTS0047719, 4-[2-(2,5-dimethyl-1H-pyrrol-1-yl)thiophene-3-carbonyl]-3,4-dihydro-2H-1,4-benzoxazine-2-carboxamide], in data set [1], the IC50 is 710 nM.

`Cc1ccc(C)n1-c1ccc(SCC(=O)O)cc1` [WXHTS0063086, 2-{[4-(2,5-dimethyl-1H-pyrrol-1-yl)phenyl]sulfanyl}acetic acid]: in data set [1], the IC50 came to 470 nM.

In the case of `Cc1cc(C)n2c(SCC(=O)c3cccc(N4CCCC4=O)c3)nnc2n1` [WXHTS0080223, 1-{3-[2-({5,7-dimethyl-[1,2,4]triazolo[4,3-a]pyrimidin-3-yl}sulfanyl)acetyl]phenyl}pyrrolidin-2-one], in data set [1], the IC50 turned out to be 850 nM.

Turning to `CC(=O)N1CCC(NC(=O)c2cc(C)c(C)s2)CC1` [WXHTS0092123, N-(1-acetylpiperidin-4-yl)-4,5-dimethylthiophene-2-carboxamide], in data set [1], the IC50 turned out to be 920 nM.

Regarding `O=c1cc(CN2CCn3c(nnc3-c3ccccc3)C2)[nH]c2ccnn12` [WXHTS0101810, 5-({3-phenyl-5H,6H, 7H,8H-[1,2,4]triazolo[4,3-a]pyrazin-7-yl}methyl)-4H,7H-pyrazolo[1,5-a]pyrimidin-7-one], in data set [1], the IC50 was 850 nM.

Take “NUMB RNA: non-biotinylated NUMB RNA that competes with NUMB-Biotin 5′ RNA to bind the MSI2 protein (UAGGUAGUAGUUUUA; non-biotinylated RNA, further chemistry not given here)”: the “displacement of the binding signal between U1A protein and U1A target-Biotin5′ RNA” value in data set [2] is recorded as “did not displace the binding signal”. For the same compound, the “displacement of the binding signal between MSI2 protein and NUMB-Biotin5′ RNA” value in data set [3] is “displaced the binding signal”.
